Test results published in US9815833B2, “Pyridine derivative and medical use thereof” (Chengdu Easton Biopharmaceuticals Co., Ltd., priority 2013, dated 2017).

How the values were obtained:
[1] = tested on: APTT of healthy mice; assay: Effects on APTT of healthy mice; assay type: in vivo, KM mice; conditions: 5 mg/kg i.g.; for APTT (sec): KM mice, blood collected 1 hour after administration, x ± SD, 10 mice per group; for anticoagulant effect (APTT) compared with positive drug Apixaban: same dose
From the text: Test for four coagulation parameters (including prothrombin time (PT), activated partial thromboplastin time (APTT), thrombin time (TT) and fibrinogen (FIB)) belongs to one of clinical inspection items, and is necessary to thrombotic disease inspections or before the surgery. APTT mainly reflects whether the intrinsic coagulation system status is normal or not. Accordingly, the APTT value is used as a detection indicator in this test of the present invention. The anticoagulant effects of the compounds prepared in the Examples of the present invention were evaluated through the effects thereof on APTT of mice.
(§1) KM mice, weighing 28-30 g, male, 170 mice, provided by Chengdu Dashuo Biological Technology Co., Ltd.; Production facility license: SCXK (Chuan) 2008-24. Animals were housed in the animal room after purchased, adaptively observed for at least three days, and used for assays unless they were qualified for the quarantine standard.
(1) Grouping: mice were grouped and tested according to Table 1, wherein there were 10 mice in each group.
Mice in each group were administrated with the corresponding investigational drugs (mice in control group were administrated with the normal saline). At 1 hour after administration, blood was collected into 0.5 ml vacuum blood-collection tube containing sodium citrate from mice orbit. APTT values of animals were measured after collecting the blood samples.
Excel was used for statistics, experimental data were expressed as (x±SD), and two-sided T-test method was used to statistically compare the experimental data among multiple groups.

[2] = Pharmacokinetic studies on healthy rats; assay type: in vivo; conditions: male, rat, po, SD rats, 10 mg/kg i.g., plasma; for AUC(0-t): read-out: AUC0-24
From the text: SD rats were used as test animals, and LC/MS/MS method was applied for measuring the drug concentrations of rats at different time after administrating the compounds of the present invention by gavage, respectively. Pharmacokinetic behaviors of the compounds of the present invention on rats were studied, so as to evaluate the pharmacokinetic characteristics thereof.
as §1, with “SD rats,” for “KM mice,”, “180-220” for “28-30”, “40 rats, 5 rats in each group,” for “170 mice,”
3.1 Grouping: the rats were randomly grouped according to Table 3, with no significant difference among the groups;
Rats in each group was administrated by gavage with the corresponding investigational drugs according to Table 3, at 5 min, 10 min, 20 min, 30 min, 1 h, 2 h, 4 h, 6 h, 8 h, 10 h, 12 h, 24 h after administration, 0.5 ml of blood was taken into the vacuum blood-collection tubes containing heparin sodium, and centrifuged at 5,000 rpm to obtain plasma which was stored at −20° C.
50 μL plasma at each time after administration was taken, then 150 μL of acetonitrile was added, which was subjected to vortex at 1500 rpm for 2 minutes. Solution was centrifuged for 15 minutes (3500 r/min), after that 10 μL supernatant was analyzed by HPLC/MS/MS.
The pharmacokinetic behaviors of the investigational compounds were subjected to compartmental model fitting, and DAS 2.0 software was used to calculate the main pharmacokinetic parameters.

[3] = target: human FXa (Homo sapiens, UniProt P00742); assay: Human FXa inhibition assay (fluorogenic substrate); assay type: biochemical; conditions: human FXa 1 nM, substrate 106.7 μM, 30 minutes at room temperature, pH 8.0
Experimental: Inhibitory effects of the compounds of the present invention on human FXa were studied, to measure IC50 values thereof on human FXa.
human FXa enzyme (Sekisui Diagnostics, REF 526);
Fluorogenic substrate for the FXa assay (American diagnostic, Product No. 222F);
Buffer: 20 mM Tris-HCl, 200 mM NaCl, 2.5 mM CaCl2, pH 8.0.
(2) 10 mM of each compound was 5-fold diluted serially with buffer to different concentrations (from 40 μM to 0.00002048 μM);
(3) 6 μL of the above diluted solutions of Step (2) were added into each well of 384-well plate to make a final volume of 60 μL, and the final concentration of the compound ranged from 4 μM to […];
(4) 30 μL of human FXa enzyme (2 nM) was added into each well, with a final concentration of 1 nM;
(5) 24 μL human FXa fluorescent enzyme substrate (266.7 μM) was added into each well, with a final concentration of 106.7 μM;
(6) the plate was gently shaked for 5 minutes and then incubated for 30 minutes at room temperature, with avoidance from light;
(7) fluorescence signal was read at 360/440 nm, the inhibition percentage was measured, and 4 Parameter Logistic Model in Xlfit software was employed to calculate IC50.

Chain of human FXa (P00742 235-488 limits assumed): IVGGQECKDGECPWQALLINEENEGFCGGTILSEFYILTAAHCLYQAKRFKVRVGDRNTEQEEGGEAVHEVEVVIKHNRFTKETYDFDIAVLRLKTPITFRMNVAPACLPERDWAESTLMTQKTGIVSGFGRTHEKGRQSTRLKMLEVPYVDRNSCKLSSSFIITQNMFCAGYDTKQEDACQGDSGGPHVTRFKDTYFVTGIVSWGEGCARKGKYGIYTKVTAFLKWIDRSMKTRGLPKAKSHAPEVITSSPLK
Chain of human FXa (P00742 41-179 partner limits assumed): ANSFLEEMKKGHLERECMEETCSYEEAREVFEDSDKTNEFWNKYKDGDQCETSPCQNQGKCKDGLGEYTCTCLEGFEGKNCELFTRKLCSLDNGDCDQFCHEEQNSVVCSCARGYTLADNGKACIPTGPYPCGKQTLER

| SMILES | Cmax [2] | Tmax [2] | half-life [2] | AUC(0-t) [2] | IC50 [3] | APTT (sec) [1] | APTT value compared with the control group ([1]; mice, 1 h after administration, P<0.01) | anticoagulant effect (APTT) compared with positive drug Apixaban ([1]; mice, 1 h after administration) |
| --- | --- | --- | --- | --- | --- | --- | --- | --- |
| COc1ccc(-n2nc(C(N)=O)c3c2C(=O)N(c2ccc(N4CCCCC4=O)cc2)CC3)cc1 [Apixaban, reference compound] | 6850 ng/mL | 0.5 h | 5.2 h | 12900 ng·h/mL |  | 21.46 ± 2.32 * * sec | significantly increase |  |
| NC(=O)c1nn(-c2ccccc2F)c2c1CCN(c1ccc(N3CCCC3=O)cc1)C2=O [Example 6, 1-(2-fluorophenyl)-7-oxo-6-[4-(2-oxo-pyrrolidin-1-yl)phenyl]-4,5,6,7-tetrahydro-1H-pyrazolo[3,4-c]pyridine-3-carboxamide] | 7560 ng/mL | 0.3 h | 5.8 h | 19800 ng·h/mL |  | 27.32 ± 3.12 * * ^ΔΔ sec |  | significantly better than positive drug Apixaban |
| NC(=O)c1nn(-c2cc(F)cc(F)c2)c2c1CCN(c1ccc(N3CCCC3=O)cc1)C2=O [Example 8, 1-(3,5-difluoro-phenyl)-7-oxo-6-[4-(2-oxo-pyrrolidin-1-yl)phenyl]-4,5,6,7-tetrahydro-1H-pyrazolo[3,4-c]pyridine-3-carboxamide] | 7860 ng/mL | 0.3 h | 6.2 h | 20100 ng·h/mL |  | 27.82 ± 2.71 * * ^ΔΔ sec |  | significantly better than positive drug Apixaban |

Now from value to compound, other results behind:

| Cmax [2] | Tmax [2] | half-life [2] | AUC(0-t) [2] | IC50 [3] | SMILES | APTT (sec) [1] | APTT value compared with the control group ([1]; mice, 1 h after administration, P<0.01) | anticoagulant effect (APTT) compared with positive drug Apixaban ([1]; mice, 1 h after administration) |
| --- | --- | --- | --- | --- | --- | --- | --- | --- |
| 9360 ng/mL | 0.2 h | 6.4 h | 36400 ng·h/mL | 78 pM | COc1ccc(-n2nc(C(N)=O)c3c2C(=O)N(c2ccc(N4CCCC4=O)cc2C)CC3)cc1 [Example 9, 1-(4-methoxyphenyl)-7-oxo-6-[2-methyl-4-(2-oxo-pyrrolidin-1-yl)phenyl]-4,5,6,7-tetrahydro-1H-pyrazolo[3,4-c]pyridine-3-carboxamide] | 31.29 ± 2.80 * * ^ΔΔ sec |  | significantly better than positive drug Apixaban |
| 8750 ng/mL | 0.25 h | 6.5 h | 32400 ng·h/mL | 124 pM | COc1ccc(-n2nc(C(N)=O)c3c2C(=O)N(c2ccc(N4CCCC4=O)cc2C)CC3)cc1F [Example 15, 1-(3-fluoro-4-methoxyphenyl)-7-oxo-6-[2-methyl-4-(2-oxo-pyrrolidin-1-yl)phenyl]-4,5,6,7-tetrahydro-1H-pyrazolo[3,4-c]pyridine-3-carboxamide] | 27.97 ± 2.32 * * ^ΔΔ sec |  | significantly better than positive drug Apixaban |
| 9450 ng/mL | 0.25 h | 6.2 h | 37700 ng·h/mL | 23 pM | COc1ccc(-n2nc(C(N)=O)c3c2C(=O)N(c2ccc(N4CCCC4=O)c(C)c2)CC3)cc1 [Example 16, 1-(4-methoxyphenyl)-7-oxo-6-[3-methyl-4-(2-oxo-pyrrolidin-1-yl)phenyl]-4,5,6,7-tetrahydro-1H-pyrazolo[3,4-c]pyridine-3-carboxamide] | 29.89 ± 2.72 * * ^ΔΔ sec |  | significantly better than positive drug Apixaban |
| 9670 ng/mL | 0.25 h | 6.8 h | 38600 ng·h/mL | 15 pM | Cc1cc(N2CCc3c(C(N)=O)nn(-c4cc(F)cc(F)c4)c3C2=O)ccc1N1CCCC1=O [Example 17, 1-(3,5-difluoro-phenyl)-7-oxo-6-[3-methyl-4-(2-oxo-pyrrolidin-1-yl)phenyl]-4,5,6,7-tetrahydro-1H-pyrazolo[3,4-c]pyridine-3-carboxamide] | 30.79 ± 2.91 * * ^ΔΔ sec |  | significantly better than positive drug Apixaban |
| 8970 ng/mL | 0.25 h | 6.8 h | 35500 ng·h/mL | 91 pM | COc1ccc(-n2nc(C(N)=O)c3c2C(=O)N(c2ccc(N4CCCC4=O)c(C)c2)CC3)cc1F [Example 18, 1-(3-fluoro-4-methoxyphenyl)-7-oxo-6-[3-methyl-4-(2-oxo-pyrrolidin-1-yl)phenyl]-4,5,6,7-tetrahydro-1H-pyrazolo[3,4-c]pyridine-3-carboxamide] | 28.96 ± 2.42 * * ^ΔΔ sec |  | significantly better than positive drug Apixaban |
